Patent publication EP3714904B1, “IMINODIACETIC ACID SUBSTITUTED CYCLODEXTRINS AS POTENTIATORS OF BETA-LACTAM ANTIBIOTICS” (NATIONAL CENTER FOR SCIENTIFIC RESEARCH "DEMOKRITOS" (NCSRD), priority 2019, dated 2020)
Like-named read-outs stand apart in the source and are kept apart here.

Key:
Experiment in all cases: MIC of β-lactams alone or with 50 µM IDACYD against clinical isolates
Type in all cases: cell-based
Klebsiella pneumoniae = details: for Imipenem + α-IDACYD MIC / Meropenem + α-IDACYD MIC: IDACYD 50 μM; for MIC: Klebsiella pneumoniae, alone
Protocol: Further the in-vitro inhibitory activity of IDACYDs was tested against highly resistant pathogens. […] Table 2: Collection of clinical isolates used for in-vitro evaluation

Acinetobacter baumannii = details: Acinetobacter baumannii, alone, read-out: Imipenem MIC
Protocol: (§1) Further the in-vitro inhibitory activity of IDACYDs was tested against highly resistant pathogens. Tables 3, 4 and 5 show the effect of IDACYDs using a collection of 36 highly resistant Gram negative strains (Table 2, Kirby-Bauer disc diffusion method) producing NDM, VIM and IMP type MBLs as well as 6 isolates expressing serine beta-lactamases (ESBLs, AmpCs). […] Clinical isolates co-expressing ESBLs and/or AmpC β-lactamases along with MBLs where re-sensitized to both imipenem and meropenem, as expected. Table 2: Collection of clinical isolates used for in-vitro evaluation

Enterobacter gergoviae = details: Pluralibacter gergoviae, alone, read-out: Imipenem MIC
Protocol: as §1

Escherichia coli = details: Escherichia coli, alone
Protocol: as §1

Proteus mirabilis = details: Proteus mirabilis, alone
Protocol: as §1

Providencia stuartii = details: Providencia stuartii, alone
Protocol: as §1

Serratia marcescens = details: Serratia marcescens, isolate EUG-815 (VIM, CMY), alone
Protocol: as §1

SMILES: CO[C@@H]1[C@@H](OC)[C@H]2O[C@H]3[C@H](OC)[C@@H](OC)[C@@H](O[C@H]4[C@H](OC)[C@@H](OC)[C@@H](O[C@H]5[C@H](OC)[C@@H](OC)[C@@H](O[C@H]6[C@H](OC)[C@@H](OC)[C@@H](O[C@H]7[C@H](OC)[C@@H](OC)[C@@H](O[C@@H]1[C@@H](CN(CC(=O)O)CC(=O)O)O2)O[C@@H]7CN(CC(=O)O)CC(=O)O)O[C@@H]6CN(CC(=O)O)CC(=O)O)O[C@@H]5CN(CC(=O)O)CC(=O)O)O[C@@H]4CN(CC(=O)O)CC(=O)O)O[C@@H]3CN(CC(=O)O)CC(=O)O [α-IDACYD]
- Imipenem + α-IDACYD MIC (Klebsiella pneumoniae; Kpn ESDY 5742 (IMP-1)): <0.25 µg/mL
- Meropenem + α-IDACYD MIC (Klebsiella pneumoniae; Kpn ESDY 5742 (IMP-1)): <0.25 µg/mL
- Imipenem + α-IDACYD MIC (Klebsiella pneumoniae; Kpn LA 34 (VIM-1 CMY)): <0.5 µg/mL
- Meropenem + α-IDACYD MIC (Klebsiella pneumoniae; Kpn LA 34 (VIM-1 CMY)): <0.5 µg/mL
- Imipenem + α-IDACYD MIC (Klebsiella pneumoniae; Kpn LA 82/16 (VIM-1)): <0.25 µg/mL
- Meropenem + α-IDACYD MIC (Klebsiella pneumoniae; Kpn LA 82/16 (VIM-1)): <0.25 µg/mL
- Imipenem + α-IDACYD MIC (Klebsiella pneumoniae; Kpn LA 109/16 (VIM-1)): <0.25 µg/mL
- Meropenem + α-IDACYD MIC (Klebsiella pneumoniae; Kpn LA 109/16 (VIM-1)): <0.25 µg/mL
- Imipenem + α-IDACYD MIC (Klebsiella pneumoniae; Kpn LA419/16 (NDM-1)): <0.25 µg/mL
- Meropenem + α-IDACYD MIC (Klebsiella pneumoniae; Kpn LA419/16 (NDM-1)): <0.25 µg/mL

SMILES: C[C@@H](O)[C@H]1C(=O)N2C(C(=O)O)=C(SCCN=CN)C[C@H]12 [Imipenem, reference compound]
- MIC (Klebsiella pneumoniae; Table 5, Kpn ESDY 5742 (IMP-1), read-out: Imipenem MIC): 8 µg/mL
- MIC (Klebsiella pneumoniae; Table 5, Kpn LA 26 (NDM-1), read-out: Imipenem MIC): 16 µg/mL
- MIC (Klebsiella pneumoniae; Table 5, Kpn LA 34 (VIM-1 CMY), read-out: Imipenem MIC): 16 µg/mL
- MIC (Klebsiella pneumoniae; Table 5, Kpn LA 82/16 (VIM-1), read-out: Imipenem MIC): 64 µg/mL
- MIC (Klebsiella pneumoniae; Table 5, Kpn LA 109/16 (VIM-1), read-out: Imipenem MIC): 16 µg/mL
- MIC (Klebsiella pneumoniae; Table 5, Kpn LA419/16 (NDM-1), read-out: Imipenem MIC): 8 µg/mL
- MIC (Klebsiella pneumoniae; Table 5, Kpn LAR 37II/15 (NDM-1, VIM-1, CTXM), read-out: Imipenem MIC): 64 µg/mL
- MIC (Klebsiella pneumoniae; isolate 6/100 (VIM), read-out: Imipenem MIC): 32 µg/mL
- MIC (Klebsiella pneumoniae; isolate 2489 (NDM), read-out: Imipenem MIC): 32 µg/mL
- MIC (Klebsiella pneumoniae; isolate 2685 (VIM, CMY, CTXM), read-out: Imipenem MIC): 32 µg/mL
- MIC (Klebsiella pneumoniae; isolate ALX-47 (OXA-48,CTX-M), read-out: Imipenem MIC): 4 µg/mL
- MIC (Klebsiella pneumoniae; isolate ESDY-1780 (VIM, KPC), read-out: Imipenem MIC): 16 µg/mL
- MIC (Klebsiella pneumoniae; isolate ESDY-2681 (VIM-27), read-out: Imipenem MIC): 16 µg/mL
- MIC (Klebsiella pneumoniae; isolate ESDY-5742 (IMP), read-out: Imipenem MIC): 8 µg/mL
- MIC (Klebsiella pneumoniae; isolate EY-20S (CMY, SHV), read-out: Imipenem MIC): 2 µg/mL
- MIC (Klebsiella pneumoniae; isolate IT-17829 (CTXM, SHV), read-out: Imipenem MIC): 1 µg/mL
- MIC (Klebsiella pneumoniae; isolate L078/11 (KPC), read-out: Imipenem MIC): 32 µg/mL
- MIC (Klebsiella pneumoniae; isolate LA-26 (NDM), read-out: Imipenem MIC): 16 µg/mL
- MIC (Klebsiella pneumoniae; isolate LA-27 (NDM, CTXM), read-out: Imipenem MIC): 8 µg/mL
- MIC (Klebsiella pneumoniae; isolate LA-28 (NDM, CTXM), read-out: Imipenem MIC): 8 µg/mL
- MIC (Klebsiella pneumoniae; isolate LA-34 (VIM, CMY), first entry of Table 3, read-out: Imipenem MIC): 32 µg/mL
- MIC (Klebsiella pneumoniae; isolate LA-34 (VIM, CMY), second entry of Table 3, read-out: Imipenem MIC): 32 µg/mL
- MIC (Klebsiella pneumoniae; isolate LA-38 (NDM), read-out: Imipenem MIC): 8 µg/mL
- MIC (Klebsiella pneumoniae; isolate LA-82/16 (VIM, SHV), read-out: Imipenem MIC): 8 µg/mL
- MIC (Klebsiella pneumoniae; isolate LA-109/16 (VIM, CTXM), read-out: Imipenem MIC): 16 µg/mL
- MIC (Klebsiella pneumoniae; isolate LA-419/16 (NDM,CTXM), read-out: Imipenem MIC): 4 µg/mL
- MIC (Klebsiella pneumoniae; isolate LA-470/17 (NDM), read-out: Imipenem MIC): 8 µg/mL
- MIC (Klebsiella pneumoniae; isolate LAR-26I/15 (NDM, VIM, CTXM), read-out: Imipenem MIC): 16 µg/mL
- MIC (Klebsiella pneumoniae; isolate LAR-37II/15 (NDM, VIM, CTXM), read-out: Imipenem MIC): 64 µg/mL
- MIC (Klebsiella pneumoniae; isolate LAR-38I/15 (VIM, NDM, CTXM), read-out: Imipenem MIC): 4 µg/mL
- MIC (Klebsiella pneumoniae; isolate LAR-40II/15 (KPC), read-out: Imipenem MIC): 16 µg/mL
- MIC (Klebsiella pneumoniae; isolate LAR-2873 (VIM-12), read-out: Imipenem MIC): 4 µg/mL
- MIC (Klebsiella pneumoniae; isolate LAR-7547 (NDM, VIM, CTXM), read-out: Imipenem MIC): 64 µg/mL
- MIC (Klebsiella pneumoniae; isolate SEC-2 (VIM), read-out: Imipenem MIC): 32 µg/mL
- MIC (Klebsiella pneumoniae; isolate SEC-4 (VIM), read-out: Imipenem MIC): 64 µg/mL
- MIC (Klebsiella pneumoniae; isolate TZAN-59 (β-lactamase: None), read-out: Imipenem MIC): 1 µg/mL
- MIC (Klebsiella pneumoniae; isolate UoA 12/227 (VIM), read-out: Imipenem MIC): 8 µg/mL
- MIC (Klebsiella pneumoniae; isolate UoA 1995 (VIM), read-out: Imipenem MIC): 8 µg/mL
- MIC (Acinetobacter baumannii; isolate TZAN-40 (VIM, OXA-58)): 4 µg/mL
- MIC (Acinetobacter baumannii; isolate TZAN-42 (VIM, OXA-58)): 8 µg/mL
- MIC (Enterobacter gergoviae; isolate AK-5227 (VIM, CMY)): 8 µg/mL
- MIC (Enterobacter gergoviae; isolate AK-5240 (VIM, CMY)): 8 µg/mL
- MIC (Escherichia coli; isolate TZAN-116 (VIM), read-out: Imipenem MIC): 4 µg/mL
- MIC (Escherichia coli; isolate TZAN-541 (VIM), read-out: Imipenem MIC): 4 µg/mL
- MIC (Proteus mirabilis; Table 5, Pr m ESDY 15315 (VIM-1, CMY), read-out: Imipenem MIC): 16 µg/mL
- MIC (Proteus mirabilis; isolate ALX-13 (VIM, VEB), read-out: Imipenem MIC): 8 µg/mL
- MIC (Proteus mirabilis; isolate ESDY-17 (VIM, CMY), read-out: Imipenem MIC): 4 µg/mL
- MIC (Proteus mirabilis; isolate ESDY-15184 (VIM, CMY), read-out: Imipenem MIC): 8 µg/mL
- MIC (Proteus mirabilis; isolate ESDY-15315 (VIM, CMY), read-out: Imipenem MIC): 16 µg/mL
- MIC (Providencia stuartii; isolate ALX- 21 (VIM, VEB), read-out: Imipenem MIC): 8 µg/mL
- MIC (Providencia stuartii; isolate ALX-27 (VIM), read-out: Imipenem MIC): 16 µg/mL
- MIC (Providencia stuartii; isolate ESDY-4559 (VIM), read-out: Imipenem MIC): 4 µg/mL
- MIC (Providencia stuartii; isolate ESDY-4563 (VIM, VEB), read-out: Imipenem MIC): 4 µg/mL
- MIC (Serratia marcescens; read-out: Imipenem MIC): 16 µg/mL

SMILES: CC(C)(O/N=C(\C(=O)N[C@@H]1C(=O)N2C(C(=O)[O-])=C(C[n+]3ccccc3)CS[C@H]12)c1csc(N)n1)C(=O)O [Ceftazidime, reference compound]
- MIC (Klebsiella pneumoniae; isolate ALX-47 (OXA-48,CTX-M), read-out: Ceftazidime MIC): > 256 µg/mL
- MIC (Klebsiella pneumoniae; isolate ESDY-5742 (IMP), read-out: Ceftazidime MIC): > 256 µg/mL
- MIC (Klebsiella pneumoniae; isolate LA-28 (NDM, CTXM), read-out: Ceftazidime MIC): > 256 µg/mL
- MIC (Klebsiella pneumoniae; isolate LA-82/16 (VIM, SHV), read-out: Ceftazidime MIC): > 256 µg/mL
- MIC (Klebsiella pneumoniae; isolate LA-109/16 (VIM, CTXM), read-out: Ceftazidime MIC): > 256 µg/mL
- MIC (Klebsiella pneumoniae; isolate LAR-4011/15, read-out: Ceftazidime MIC): 32 µg/mL
- MIC (Klebsiella pneumoniae; isolate UoA 12/227 (VIM), read-out: Ceftazidime MIC): > 256 µg/mL
- MIC (Klebsiella pneumoniae; isolate UoA 1995 (VIM), read-out: Ceftazidime MIC): > 256 µg/mL
- MIC (Escherichia coli; isolate TZAN-116 (VIM), read-out: Ceftazidime MIC): > 256 µg/mL
- MIC (Proteus mirabilis; isolate ESDY-15184 (VIM, CMY), read-out: Ceftazidime MIC): > 256 µg/mL
- MIC (Providencia stuartii; isolate ALX- 21 (VIM, VEB), read-out: Ceftazidime MIC): 128 µg/mL
- MIC (Providencia stuartii; isolate ESDY-4559 (VIM), read-out: Ceftazidime MIC): 8 µg/mL
- MIC (Serratia marcescens; read-out: Ceftazidime MIC): > 256 µg/mL
